Source: patent publication US7468394B1, “Sterile pharmaceutical composition and process for a solution of propofol emulsion having microbial growth retardation” (priority 2003, dated 2008)

Excerpt: Propofol has limited water solubility, however it is easy to dissolve in soybean oil. As such, it must be incorporated with a solubilizing agent, surfactants or solvents to generate oil-in-water emulsions. The oil component of the emulsion is contained within a shell of the surfactants (egg lecithin), thus forming a “sunflower” structure, which can be seen in Table 1. Currently marketed propofol products are available as oil-in-water emulsions.

## CC(C)c1cccc(C(C)C)c1O [propofol, 2,6-Diisopropylphenol]
  partition coefficient of propofol between soybean oil and water: 4,220
